Measured values as given in patent publication US7560473B2 (Institute of Pharmacology and Toxicology Academy of …, priority 2001, dated 2009).

Columns and labels:
[1] = target: T1, ATP-sensitive potassium channels in vascular smooth muscles (Rattus norvegicus, UniProt Q63563); assay: Inhibition of specific binding of [^3H]P1075 in endothelium-removed rat aorta; design: species or system Wistar rat
T1 construct: The aorta was cut into about 3-5 mm arterial rings and the vascular endothelium was scraped off; from tissue; host or cells: endothelium-removed aortic rings of male Wistar rats

[2] = tested on: rats anesthetized with pentobarbital sodium; assay: Antagonism of glibenclamide on the cardiovascular effects in anesthetized rats; type: in vivo, Wistar rats; details: for +dp/dtmax / DBP / HR / LVSP / MBP / SB / Vpm / −dp/dtmax: iv mg/kg: pinacidil 1.0, nifedipine 1.0, compound 1 0.5, means ± SE
Method: The methods of biological activity experiment 1 were as follows: Male Wistar rats, weighing 280±30 g were purchased from the experimental animal center of Academy of Military Medical Sciences. Rats were anesthetized with pentobarbital sodium (45 mg/kg) by peritoneal injection. A PE50 polyethylene catheter was inserted into the left ventricle through right carotid artery for cardiac function measurement with a pressure energe exchanger, wherein the signal is put into a SMUP-PC biosignal processing system. Cardiac functional parameters such as HR, LVSP, +dp/dtmax, −dp/dtmax and Vpm were recorded. Another two PE50 polyethylene catheters were inserted into the right femoral artery and vein respectively for blood pressure measurement wherein the artery cathether was linked to a four-channel physiology recorder (RM-6000) through a MPU-0.5A Type pressure energe exchanger, which recorded SBP, DBP and MBP, while the vein catheter was used for compound administration. The methods were described by Liu Wei et al: Liu Wei, Wang Hai, Xiao Wen-Bin.
The methods of Biological activity experiment 3 were the same as those described in the biological activity experiment 1.

[3] = tested on: spontaneously hypertensive rats; assay: Acute antihypertensive effects in conscious spontaneously hypertensive rats; type: in vivo
Text: Biological activity experiment 2. The acute antihypertensive effects of compound 1 in conscious spontaneously hypertensive rats.
The methods of biological activity experiment 2 were described by Long Chao-Liang et al: Long Chao-Liang, Wang Hai, Xiao Wen-Bin. Effects of pinacidil on, hypertensive vascular remodeling. Chin J Pharmacol Toxicol 1997; 11(1):42-46.

[4] = target: T1, ATP-sensitive potassium channels in vascular smooth muscles; assay: Association and dissociation kinetics of [^3H]glibenclamide binding in aortic rings; design: species or system Wistar rat; details: drug M: compound 1 10^−4, pinacidil 10^−4, ATP 10^−2, ADP 10^−3, UDP 5 × 10^−3, Ade 10^−3
Text: Biological activity experiment 4. Allosteric regulation of novel compounds on ATP-sensitive potassium channels in vascular smooth muscles.
To study the allosteric regulation of compound 1 on ATP-sensitive potassium channels in vascular smooth muscles, the radio-labled-ligand was used in the biological activity experiment 4.
1. The allosteric regulation of compound 1 on the binding sites for the selective KATP blocker glibenclamide in vascular smooth muscles was studied as follows: After decapitated, the male Wistar rat (340±20 g) was immediately incised open the thoracic cavity. The aorta was dissected and immersed in the 4° C. buffer containing 10 mM HEPES to wash off the blood, then carefully extirpated the fat, peripheral connective tissues and thrombus. The aorta was cut into about 3-5 mm arterial rings and the vascular endothelium was scraped off with wet tampon. The arterial rings were blotted, weighted and transferred into the tubes containing proper amount of ice colded physiological saline buffer. […] At 5,10,15,20,30,60,90 and 120 min after incubation, 9 mL ice colded Tris buffer (50 mM) was added to terminate the reaction. After washing off the free and bound [^3H]-glibenclamide, the aorta was blotted, transferred to a scintillator, added 50 uL 30% H2O2 and reacted for 2 h at 80° C. After cooling, 2.5 mL ethyl glycol and 5 mL 1% B-BPD xylene were added in sequence, kept stationary for 8 h and measured under a scintillometer for cpm value. The resulting data were fit into a regression line with In[BEQ/(BEQ-Bt)]vs.t and the parameters for association kinetics were obtained. In the disassociation kinetics experiments, the aorta treated as described above and [^3H]-glibenclamide were incubated for 60 min at 25° C., and then 30 uM glibenclamide was added. 0,5,15,30,60,90 and 120 min later, the cpm values for the complex of [^3H]-glibenclamide and KATP were measured. The resulting data were fit into a regression line with In(B/BEQ)]vs.t and the parameters for disassociation kinetics were obtained. 2. The allosteric regulation of compound 1 on the binding sites for the selective KATP activator P1075 in vascular smooth muscles was studied with the method as described above, but some conditions should be changed as follows: the incubation temperature was 37° C. instead of 25° C.;P1075 was used instead of glibenclamide; In the association kinetics experiments, the time points for sampling were 5,10,15,20,30,45,60 and 90 min, while in the disassociation kinetics experiments, that were 1,3,5,10,20,30,45 and 60 min. Biological activity experiment 5. The effects of compound 1 on the specific binding of high selective activator [^3H]P1075 with ATP-sensitive potassium channels in vascular smooth muscles.

[5] = A: after administration (30 min after pinacidil, 10 min nifedipine, 15 min compound 1), glibenclamide 20 iv pretreatment
[6] = B: before administration, glibenclamide 20 iv pretreatment ten minutes

T1 sequence (Q63563 1-1545 isoform Q63563-2): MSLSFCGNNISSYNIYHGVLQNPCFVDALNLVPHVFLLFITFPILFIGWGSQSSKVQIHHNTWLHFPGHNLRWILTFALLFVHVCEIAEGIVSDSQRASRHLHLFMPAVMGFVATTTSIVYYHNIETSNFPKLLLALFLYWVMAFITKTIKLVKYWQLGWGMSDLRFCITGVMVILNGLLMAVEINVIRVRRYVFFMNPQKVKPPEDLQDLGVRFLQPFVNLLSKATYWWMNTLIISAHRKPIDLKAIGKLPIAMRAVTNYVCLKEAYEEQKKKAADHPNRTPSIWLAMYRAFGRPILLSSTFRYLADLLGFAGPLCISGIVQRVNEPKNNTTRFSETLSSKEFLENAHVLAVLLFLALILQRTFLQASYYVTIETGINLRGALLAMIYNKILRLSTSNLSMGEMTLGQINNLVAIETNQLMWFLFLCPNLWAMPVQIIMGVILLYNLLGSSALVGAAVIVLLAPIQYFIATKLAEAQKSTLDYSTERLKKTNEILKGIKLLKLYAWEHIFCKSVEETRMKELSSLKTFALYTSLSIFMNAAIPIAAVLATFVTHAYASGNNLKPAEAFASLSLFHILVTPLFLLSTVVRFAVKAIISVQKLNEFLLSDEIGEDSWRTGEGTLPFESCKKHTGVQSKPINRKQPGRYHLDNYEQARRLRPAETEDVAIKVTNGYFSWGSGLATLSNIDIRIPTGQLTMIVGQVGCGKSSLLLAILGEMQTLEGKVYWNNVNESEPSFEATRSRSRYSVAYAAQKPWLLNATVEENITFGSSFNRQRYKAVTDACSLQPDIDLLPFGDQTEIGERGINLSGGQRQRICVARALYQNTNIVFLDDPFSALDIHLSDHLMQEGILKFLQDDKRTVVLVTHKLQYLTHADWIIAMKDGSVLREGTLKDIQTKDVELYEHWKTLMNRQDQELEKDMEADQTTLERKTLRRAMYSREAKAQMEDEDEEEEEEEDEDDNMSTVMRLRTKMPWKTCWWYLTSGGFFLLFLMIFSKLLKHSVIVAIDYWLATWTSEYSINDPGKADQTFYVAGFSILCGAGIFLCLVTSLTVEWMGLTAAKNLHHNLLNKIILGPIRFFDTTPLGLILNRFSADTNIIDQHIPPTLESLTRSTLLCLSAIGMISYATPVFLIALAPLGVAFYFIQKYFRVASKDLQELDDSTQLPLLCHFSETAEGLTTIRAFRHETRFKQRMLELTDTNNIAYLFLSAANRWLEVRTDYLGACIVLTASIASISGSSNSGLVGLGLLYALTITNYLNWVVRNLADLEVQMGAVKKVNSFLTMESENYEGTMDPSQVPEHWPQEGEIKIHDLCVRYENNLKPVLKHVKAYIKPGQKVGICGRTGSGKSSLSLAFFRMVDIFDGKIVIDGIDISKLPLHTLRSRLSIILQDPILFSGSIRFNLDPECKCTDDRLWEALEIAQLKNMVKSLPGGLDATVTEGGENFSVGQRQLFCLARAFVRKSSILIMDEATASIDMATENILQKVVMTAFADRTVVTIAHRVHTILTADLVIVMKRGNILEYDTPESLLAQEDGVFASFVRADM
T1 sequence (Q63664 whole entry partner): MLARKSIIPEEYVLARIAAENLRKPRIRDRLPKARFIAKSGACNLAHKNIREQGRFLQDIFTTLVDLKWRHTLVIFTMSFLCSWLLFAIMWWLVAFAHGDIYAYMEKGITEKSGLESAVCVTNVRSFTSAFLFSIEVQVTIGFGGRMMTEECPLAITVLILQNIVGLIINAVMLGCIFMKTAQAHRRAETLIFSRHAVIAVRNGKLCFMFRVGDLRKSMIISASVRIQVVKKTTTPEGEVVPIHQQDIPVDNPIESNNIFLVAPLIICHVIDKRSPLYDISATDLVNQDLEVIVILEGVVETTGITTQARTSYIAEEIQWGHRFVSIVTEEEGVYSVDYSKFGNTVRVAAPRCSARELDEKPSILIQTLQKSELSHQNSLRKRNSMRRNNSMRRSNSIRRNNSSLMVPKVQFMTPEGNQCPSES

## CC(C)NC(C)(C)C(C)C [compound 1, N-(1-methylethyl)-2,3-dimethyl-2-butylamine]
[1]; [^3H] P1075 5 nmol L^−1, 90 minutes at 37° C., endothelium-removed rat aorta
  IC50: 355 ± 53.7 nM
[1]; [^3H] P1075 5 nmol L^−1, 90 minutes at 37° C., endothelium-removed rat aorta, read-out: pKi for inhibition of specific binding of [^3H]P1075 (converted)
  Ki: 355 nM
[1]; relative to P1075
  competitive inhibition of [^3H] P1075 binding, times weaker than that of P1075: 39 times
[1]; relative to glibenclamide
  competitive inhibition of [^3H] P1075 binding, times stronger than that of glibenclamide: 166 times
[1]; relative to pinacidil
  competitive inhibition of [^3H] P1075 binding, times weaker than that of pinacidil: 1.8 times
[2]; [5]
  +dp/dtmax: 672 ± 36 kPa/a
  DBP: 77 ± 9 mmHg
  HR: 357 ± 18 bpm
  LVSP: 133 ± 6 mmHg
  MBP: 86 ± 9 mmHg
  SB: 105 ± 10 mmHg
  Vpm: 2.7 ± 03 /a
  −dp/dtmax: 507 ± 39 kPa/a
[2]; [6]
  +dp/dtmax: 978 ± 54 kPa/a
  DBP: 98 ± 7 mmHg
  HR: 394 ± 13 bpm
  LVSP: 180 ± 10 mmHg
  MBP: 110 ± 7 mmHg
  SB: 134 ± 8 mmHg
  Vpm: 3.3 ± 0.2 /a
  −dp/dtmax: 819 ± 56 kPa/a
[2]; glibenclamide 20 mg/kg iv pretreatment
  antagonism of the cardiovascular effects by glibenclamide (in words): could be antagnized by glibenclamide
[3]; 1 h, po mg/kg: compound 1 3, pinacidil 3, nifedipine 10, bisoprolol 60, captopril 40, means ± SD, 9-13 rats
  SBP at 1 h after administration: 227 ± 12 mmHg
[3]; 1 h, po mg/kg: compound 1 3, pinacidil 3, nifedipine 10, bisoprolol 60, captopril 40, means ± SD, 9-13 rats, in bpm (unit assumed)
  heart rates at 1 h: 414 ± 27
[3]; 3 h, po mg/kg: compound 1 3, pinacidil 3, nifedipine 10, bisoprolol 60, captopril 40, means ± SD, 9-13 rats
  SBP at 3 h after administration: 218 ± 7 mmHg
[3]; 3 h, po mg/kg: compound 1 3, pinacidil 3, nifedipine 10, bisoprolol 60, captopril 40, means ± SD, 9-13 rats, in bpm (unit assumed)
  heart rates at 3 h: 412 ± 27
[3]; 5 h, po mg/kg: compound 1 3, pinacidil 3, nifedipine 10, bisoprolol 60, captopril 40, means ± SD, 9-13 rats
  SBP at 5 h after administration: 215 ± 15 mmHg
[3]; 5 h, po mg/kg: compound 1 3, pinacidil 3, nifedipine 10, bisoprolol 60, captopril 40, means ± SD, 9-13 rats, in bpm (unit assumed)
  heart rates at 5 h: 408 ± 25
[3]; 9 h, po mg/kg: compound 1 3, pinacidil 3, nifedipine 10, bisoprolol 60, captopril 40, means ± SD, 9-13 rats
  SBP at 9 h after administration: 229 ± 8 mmHg
[3]; 9 h, po mg/kg: compound 1 3, pinacidil 3, nifedipine 10, bisoprolol 60, captopril 40, means ± SD, 9-13 rats, in bpm (unit assumed)
  heart rates at 9 h: 407 ± 21
[3]; 12 h, po mg/kg: compound 1 3, pinacidil 3, nifedipine 10, bisoprolol 60, captopril 40, means ± SD, 9-13 rats
  SBP at 12 h after administration: 243 ± 7 mmHg
[3]; 12 h, po mg/kg: compound 1 3, pinacidil 3, nifedipine 10, bisoprolol 60, captopril 40, means ± SD, 9-13 rats, in bpm (unit assumed)
  heart rates at 12 h: 413 ± 15
[3]; 24 h, po mg/kg: compound 1 3, pinacidil 3, nifedipine 10, bisoprolol 60, captopril 40, means ± SD, 9-13 rats
  SBP at 24 h after administration: 244 ± 9 mmHg
[3]; 24 h, po mg/kg: compound 1 3, pinacidil 3, nifedipine 10, bisoprolol 60, captopril 40, means ± SD, 9-13 rats, in bpm (unit assumed)
  heart rates at 24 h: 417 ± 12
[3]; base value before administration, po mg/kg: compound 1 3, pinacidil 3, nifedipine 10, bisoprolol 60, captopril 40, means ± SD, 9-13 rats
  SBP base value: 246 ± 11 mmHg
[3]; base value before administration, po mg/kg: compound 1 3, pinacidil 3, nifedipine 10, bisoprolol 60, captopril 40, means ± SD, 9-13 rats, in bpm (unit assumed)
  heart rates base value: 419 ± 20
[3]; oral administration, spontaneously hypertensive rats
  duration of antihypertensive action: 9 h
[4]; 25° C., control 0.72 ± 0.11
  Dissociation kinetics k2 of [^3H]glibenclamide binding: 1.02 ± 0.14 ×10^2 nM^−1 · min^−1
[4]; Kd of the radioligand, not of the drug, control 0.55 ± 0.14
  Dissociation kinetics Kd of [^3H]glibenclamide binding in presence of the drug: 1.64 ± 0.69 nM
[4]; [^3H]-glibenclamide 3 nM, 25° C., control 1.31 ± 0.14
  Association kinetics k1 of [^3H]glibenclamide binding: 0.62 ± 0.25 ×10^−2nM^−1 · min^−1
[4]; [^3H]-glibenclamide 3 nM, 25° C., control 4.65 ± 0.37, means ± SD, n = 4~10
  Association kinetics kobs of [^3H]glibenclamide binding: 2.90 ± 0.74 ×10^−2nM^−1 · min^−1
[4]; [^3H]-glibenclamide 3 nM, 25° C., control 181.90 ± 46.90
  Association kinetics kA of [^3H]glibenclamide binding: 61.04 ± 25.89 ×10^−2nM^−1 · min^−1
